Reference: patent US20040110775A1, “Cyclin dependent kinase inhibiting purine derivatives” (priority 2001, published 2004)
Where two headings read alike, the source gives them in different places.

Columns and labels:
CDK6 = CDK6 (Homo sapiens, UniProt Q00534); details: cited from earlier work
[1] = tested on: many common kinases other than CDK's; details: cited from earlier work
CDK4 = CDK4 (Homo sapiens, UniProt P11802); details: cited from earlier work
p34 cdc2(CDK1)/cyclinB = assay: CDK assay: histone H1 phosphorylation with [32P]ATP by cdc2/cyclinB kinase; format: biochemical, starfish (Marthasterias glacialis); details: read-out: IC50 ± SD CDK1
Experimental: Assays are available for testing the inhibitory activity of the compounds of interest against a range of CDK/cyclin complexes, including CDK1/cyclin A, CDK1/cyclin B, CDK1/cyclin F, CDK2/cyclin A, CDK2/cyclin E, CDK4/cyclin D, CDK5/35 and CDK6/cyclin D3. […]
(§1) By way of example, however, a typical protocol is summarised below.
Buffer C (containing 6 mM β-glycerophosphate, 30 mM nitrophenyl phosphate, 25 mM MOPS pH 7.0, 5 mM EGTA, 15 mM MgCl2, […] and 0.1 mM sodium orthovanadate) is made up as follows:
Affinity purified p34 cdc2(CDK1)/cyclinB from M-phase starfish (Marthasterias glacialis) in 20% glycerol is stored at −80° C. in chest freezer
Histone H1 (type III-S (Sigma) 4° C.) 5 mg/ml in buffer C.
[^32P]ATP 75 mM: Make up using (multiples of) the following proportions:
DMSO cannot exceed 1% in the assay mixture. Inhibitors are added at 1/10 final assay volume and 10× final strength. DMSO stocks must therefore be diluted to 10× final desired concentration in ≦10% DMSO, ≧90% buffer C.
All reagents (except DMSO stocks) should be kept on ice until assay initiated.
Start reaction in each tube at 30 second intervals b)y adding
5 ml [^32P]ATP vortexing and placing in rack in waterbath at 30° C.
Terminate reaction after 10 min at 30 second intervals in tubes in same order by removing […] reaction mix and spotting onto appropriately labelled filter, allowing to dry for 20-30 seconds and transferring to stirring 1% phosphoric acid.
Blank incubation is performed as above but without histone (add […] buffer C instead) Washing blank is […] ATP added directly to filter.
Wash filters 5-6 times 5 min each
Dry the filters on paper towel
Count in mini scintillation vials with 5 ml scintillant.
NB. The assay can be simplified by making up stock reaction mix as follows:
(1 part cdc2/cyclinB, 16 parts buffer C, 5 parts histone H1)×Number of assay tubes+1 and add […] to each assay tube containing […] buffer C±inhibitor.
It is still necessary, however, to make up assay blank (i.e. without histone) separately.

CDK2 = CDK2 (Homo sapiens, UniProt P24941); assay: Inhibition of CDK2 (CDK inhibition assay); format: biochemical; details: read-out: IC50 ± SD CDK2
Description: Assays are available for testing the inhibitory activity of the compounds of interest against a range of CDK/cyclin complexes, including CDK1/cyclin A, CDK1/cyclin B, CDK1/cyclin F, CDK2/cyclin A, CDK2/cyclin E, CDK4/cyclin D, CDK5/35 and CDK6/cyclin D3.
Apart from reference compounds, the compounds listed are accompanied by an NU reference or identification code number.
as §1

[2] = tested on: CDK1(cdc2)/cyclin B complexes; details: disclosed in WO 99/02162; cited from earlier work
[3] = disclosed in WO 99/02162; cited from earlier work

CDK4, sequence (P11802 whole entry, species assumed): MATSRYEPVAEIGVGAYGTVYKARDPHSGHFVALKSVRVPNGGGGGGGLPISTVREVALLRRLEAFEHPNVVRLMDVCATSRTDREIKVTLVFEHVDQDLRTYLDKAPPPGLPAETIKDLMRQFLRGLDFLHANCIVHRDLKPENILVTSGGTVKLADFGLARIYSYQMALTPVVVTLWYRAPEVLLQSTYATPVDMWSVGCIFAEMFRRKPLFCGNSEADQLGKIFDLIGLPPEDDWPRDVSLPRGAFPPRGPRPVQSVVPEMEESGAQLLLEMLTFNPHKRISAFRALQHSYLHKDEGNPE
CDK4, sequence (P24385 whole entry partner, species assumed): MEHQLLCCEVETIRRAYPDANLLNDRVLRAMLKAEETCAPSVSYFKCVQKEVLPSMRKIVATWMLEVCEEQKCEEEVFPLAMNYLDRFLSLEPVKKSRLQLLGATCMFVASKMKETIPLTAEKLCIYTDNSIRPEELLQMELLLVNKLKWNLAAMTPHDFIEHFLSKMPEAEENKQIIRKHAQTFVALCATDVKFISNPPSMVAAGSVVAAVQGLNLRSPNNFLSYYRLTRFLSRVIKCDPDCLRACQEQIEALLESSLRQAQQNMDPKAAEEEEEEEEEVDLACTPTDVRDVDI
CDK6, sequence (Q00534 whole entry, species assumed): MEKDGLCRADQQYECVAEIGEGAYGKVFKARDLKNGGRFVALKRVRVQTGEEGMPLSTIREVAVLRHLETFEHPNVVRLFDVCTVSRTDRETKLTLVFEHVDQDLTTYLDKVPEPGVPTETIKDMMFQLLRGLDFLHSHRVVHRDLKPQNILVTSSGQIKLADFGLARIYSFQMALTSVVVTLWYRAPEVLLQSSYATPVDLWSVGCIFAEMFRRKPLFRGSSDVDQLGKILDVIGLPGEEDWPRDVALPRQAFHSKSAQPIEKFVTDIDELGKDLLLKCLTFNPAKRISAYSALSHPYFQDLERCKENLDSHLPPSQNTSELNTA
CDK6, sequence (P30281 whole entry partner, species assumed): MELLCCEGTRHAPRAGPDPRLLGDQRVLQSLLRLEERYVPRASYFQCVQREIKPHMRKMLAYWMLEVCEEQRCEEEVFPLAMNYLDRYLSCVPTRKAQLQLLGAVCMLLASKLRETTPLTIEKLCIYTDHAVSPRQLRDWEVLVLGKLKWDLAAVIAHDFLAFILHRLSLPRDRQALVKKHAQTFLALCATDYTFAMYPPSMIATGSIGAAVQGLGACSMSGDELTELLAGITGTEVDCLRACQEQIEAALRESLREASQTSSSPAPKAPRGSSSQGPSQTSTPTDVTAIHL

In the case of `Cn1cnc2c(NCc3ccccc3)nc(NCCO)nc21` [Olomoucine, 2-(2-hydroxyethylamino)-6-benzylamino-9-methyl-purine], the “activity against CDK6” value (CDK6) is listed as “neither has been found to be active”, the “inhibitory activity in relation to many common kinases other than CDK's” value [1] is listed as “total lack of inhibitory activity” and the “activity against CDK4” value (CDK4) is listed as “neither has been found to be active”.
In the case of `CC[C@H](CO)Nc1nc(NCc2ccccc2)c2ncn(C(C)C)c2n1` [roscovitine, 6-(benzylamino)-2(R)-[{1-(hydroxy-methyl)propyl}amino]-9-isopropylpurine], the “activity against CDK6” value (CDK6) is given as “neither has been found to be active” and the “activity against CDK4” value (CDK4) is given as “neither has been found to be active”.
`NS(=O)(=O)c1ccc(Nc2nc(OCC3CCCC3)c3nc[nH]c3n2)cc1` [NU6166, 4-[6-Cyclopentylmethoxy-9H-purin-2-ylamino)-benzenesulfonamide] gave an IC50 (p34 cdc2(CDK1)/cyclinB; values in nM) of 14 ± 3 nM and an IC50 (CDK2; values in nM) of 7 ± 1 nM.
For `C[C@H](O)CNS(=O)(=O)c1ccc(Nc2nc(OCC3CCCCC3)c3nc[nH]c3n2)cc1` [NU6167, 4-(6-Cyclohexylmethoxy-9H-purin-2-ylamino)-N-(2-hydroxypropyl)benzenesulfonamide], the IC50 (p34 cdc2(CDK1)/cyclinB; values in nM) was 9 ± 0.2 nM and the IC50 (CDK2; values in nM) was 6 ± 1 nM.
In the case of `Cc1cc(NS(=O)(=O)c2ccc(Nc3nc(OCC4CCCCC4)c4nc[nH]c4n3)cc2)nc(C)n1` [NU6160, 4-(6-Cyclohexylmethoxy-9H-purin-2-ylamino)-N-(2,6dimethylpyrimidin-4-yl)-benzenesulfonamide], the IC50 (p34 cdc2(CDK1)/cyclinB; values in nM) is reported as 28 ± 2 nM and the IC50 (CDK2; values in nM) is reported as 33 ± 6 nM.
For `Nc1nc(OCC2CCCCC2)c2nc[nH]c2n1` [NU2058, 2-Amino-O^6-cyclohexylmethylpurine], the IC50 (p34 cdc2(CDK1)/cyclinB; values given in μM) is given as 7000 ± 700 nM, the “inhibitory activity against CDK1(cdc2)/cyclin B complexes” value [2] is given as “very high inhibitory activity, comparable to that of olomoucine” and the cytotoxicity [3] is given as “cytotoxic”.
Compound `CC(C)CNS(=O)(=O)c1ccc(Nc2nc(OCC3CCCCC3)c3nc[nH]c3n2)cc1` [NU6130, 4-(6Cyclohexylmethoxy-2-ylamino)-N-isobutylbenzenesulfonamide] has an IC50 (p34 cdc2(CDK1)/cyclinB; values in nM) of 71 ± 9 nM and an IC50 (CDK2; values in nM) of 69 ± 13 nM.
For `O=S(=O)(Nc1ccccc1)c1ccc(Nc2nc(OCC3CCCCC3)c3nc[nH]c3n2)cc1` [NU6152, 4-(6-Cyclohexylmethoxy-9H-purin-2-ylamino)-N-phenyl-benzenesulfonamide], the IC50 (p34 cdc2(CDK1)/cyclinB; values given in μM) was 400 ± 100 nM and the IC50 (CDK2; values given in μM) was 200 ± 20 nM.
For `CC(O)CNS(=O)(=O)c1ccc(Nc2nc(OCC3CCCCC3)c3nc[nH]c3n2)cc1` (stereo not drawn) [NU6146, 4-(6-Cyclohexylmethoxy-9H-purin-2-ylamino)-N-(2-hydroxypropyl)benzenesulfonamide], the IC50 (p34 cdc2(CDK1)/cyclinB; values in nM) was 14 ± 7 nM and the IC50 (CDK2; values in nM) was 5 ± 1 nM.
With `O=S(=O)(Nc1ccccn1)c1ccc(Nc2nc(OCC3CCCCC3)c3nc[nH]c3n2)cc1` [NU6154, 4-(6-Cyclohexylmethoxy-9H-purin-2-ylamino)-(N-pyridin-2-yl)benzenesulfonamide] the IC50 (p34 cdc2(CDK1)/cyclinB; values in nM) was 20 ± 6 nM and the IC50 (CDK2; values in nM) was 27 ± 2 nM.
`CC1CCCCC1COc1nc(Nc2ccc(S(N)(=O)=O)cc2)nc2[nH]cnc12` (stereo not drawn) [NU6158, 4-[6-(2-Methyl-cyclohexylmethoxy)-9H-purin-2-ylamino]benzenesulfonamide] gave an IC50 (p34 cdc2(CDK1)/cyclinB; values in nM) of 6 ± 1 nM and an IC50 (CDK2; values in nM) of 4 ± 0.3 nM.
